Source: patent publication US20150119352A1, “DINUCELOSIDE POLYPHOSPHATES FOR THE TREATMENT OF PAIN” (GlobalAcorn Ltd., priority 2012, published 2015)
Entries after “also recorded” stand apart in the source; their conditions may differ.

Tests used:
Assay type in all cases: cell-based
[1] = target: T1, rat homomeric P2X2 receptors (Rattus norvegicus, UniProt P49653); assay: Whole-cell patch clamp on HEK cells expressing rat homomeric P2X2 receptors; conditions: 1 μM; 10 μM ATP
T1 construct: expressed in transfected cells; host or cells: HEK 293
T1 sequence (P49653 1-472): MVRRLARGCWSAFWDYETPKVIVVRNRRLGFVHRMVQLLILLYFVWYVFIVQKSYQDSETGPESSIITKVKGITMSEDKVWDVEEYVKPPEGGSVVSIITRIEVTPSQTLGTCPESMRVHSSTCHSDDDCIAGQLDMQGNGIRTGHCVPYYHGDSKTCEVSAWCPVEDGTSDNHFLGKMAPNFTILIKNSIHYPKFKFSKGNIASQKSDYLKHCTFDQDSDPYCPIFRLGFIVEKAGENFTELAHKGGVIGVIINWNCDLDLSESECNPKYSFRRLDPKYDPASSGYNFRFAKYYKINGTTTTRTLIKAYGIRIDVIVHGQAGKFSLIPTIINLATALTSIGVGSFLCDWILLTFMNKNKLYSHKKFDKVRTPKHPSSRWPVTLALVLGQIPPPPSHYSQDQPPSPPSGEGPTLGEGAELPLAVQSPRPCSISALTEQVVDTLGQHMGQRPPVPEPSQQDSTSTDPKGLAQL
Experimental: (§1) FIG. 4. […] A. Example traces of responses induced by 10 μM ATP applied for 2 s every 2 min to HEK cells expressing rat homomeric P2X2 receptors in the presence and absence of 1 μM AppNHppA. B. Comparison of currents induced by the full agonist of P2X2 receptors, ATP, in the presence of 1 μM AppNHppA (right) and absence (left). C. The time course of the current in the presence and absence of 1 μM AppNHppA. D. Comparison of currents induced by the full agonist of rat homomeric P2X4 and P2X7 receptors, ATP, in the presence of 1 μM AppNHppA (right) and absence (left). Experiments were performed as in FIG. 2.
(§2) Trigeminal, nodose, DRG neurons or HEK cells were recorded in the whole-cell configuration while being continuously superfused (at 2 mL/min) with control solution containing (in mM): 152 NaCl, 5 KCl, 1 MgCl2, 2 CaCl2, 10 glucose, and 10 HEPES; pH was adjusted to 7.4 with NaOH and osmolarity was adjusted to 320 mOsM with glucose. […] Responses to selective P2X3 receptor agonist α,β-methylene-ATP (α,β-meATP; resistant to ectoATPase hydrolysis, Sigma-Aldrich) were measured using an EPC-9 amplifier and HEKA Patch Master software (HEKA Electronik, Germany). Cells were voltage-clamped at −70 mV. In most cells, series resistance was compensated by 80%. […]

[2] = target: T2, rat homomeric P2X4 receptors (Rattus norvegicus, UniProt P51577); assay: Whole-cell patch clamp, rat homomeric P2X4 receptors; conditions: 1 μM; ATP
T2 construct: expressed in transfected cells
T2 sequence (P51577 1-388): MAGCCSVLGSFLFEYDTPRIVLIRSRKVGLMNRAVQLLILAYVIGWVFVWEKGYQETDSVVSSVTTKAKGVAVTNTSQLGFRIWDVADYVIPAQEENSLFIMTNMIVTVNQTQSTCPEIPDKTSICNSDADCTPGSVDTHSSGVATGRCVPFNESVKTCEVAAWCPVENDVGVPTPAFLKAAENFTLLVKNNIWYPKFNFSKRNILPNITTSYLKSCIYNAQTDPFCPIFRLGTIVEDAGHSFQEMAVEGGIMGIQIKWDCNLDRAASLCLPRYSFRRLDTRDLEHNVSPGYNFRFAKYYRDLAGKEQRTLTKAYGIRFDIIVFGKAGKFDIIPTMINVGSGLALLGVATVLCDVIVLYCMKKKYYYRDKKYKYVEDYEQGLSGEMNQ
Experimental: as §1, §2

[3] = target: T3, rat homomeric P2X7 receptors (Rattus norvegicus, UniProt Q64663); assay: Whole-cell patch clamp, rat homomeric P2X7 receptors; conditions: 1 μM; ATP
T3 construct: expressed in transfected cells
T3 sequence (Q64663 1-595): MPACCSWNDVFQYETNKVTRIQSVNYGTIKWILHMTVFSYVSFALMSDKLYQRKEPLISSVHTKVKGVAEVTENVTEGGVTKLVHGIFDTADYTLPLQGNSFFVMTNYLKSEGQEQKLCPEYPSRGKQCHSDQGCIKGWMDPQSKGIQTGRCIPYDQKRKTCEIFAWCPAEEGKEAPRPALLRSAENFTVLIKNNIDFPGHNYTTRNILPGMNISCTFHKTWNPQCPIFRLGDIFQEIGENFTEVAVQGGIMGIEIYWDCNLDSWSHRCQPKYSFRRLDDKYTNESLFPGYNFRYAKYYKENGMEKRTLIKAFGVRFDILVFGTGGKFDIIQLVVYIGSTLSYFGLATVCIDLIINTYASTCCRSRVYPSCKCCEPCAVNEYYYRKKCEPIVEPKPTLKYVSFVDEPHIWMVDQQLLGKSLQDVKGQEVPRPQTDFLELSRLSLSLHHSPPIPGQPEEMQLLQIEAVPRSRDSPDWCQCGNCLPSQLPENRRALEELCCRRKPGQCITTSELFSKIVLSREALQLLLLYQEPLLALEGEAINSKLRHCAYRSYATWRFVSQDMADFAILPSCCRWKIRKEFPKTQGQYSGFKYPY
Experimental: as §1, §2

In the case of `Nc1ncnc2c1ncn2[C@@H]1O[C@H](COP(=O)(O)OP(=O)(O)NP(=O)(O)OP(=O)(O)OC[C@H]2O[C@@H](n3cnc4c(N)ncnc43)C(O)C2O)C(O)C1O` (stereo in doubt) [AppNHppA], the “effect on P2X2 receptor-mediated currents” value [1] is reported as “not observed to produce any effects; also recorded: non-inhibitory effect”, the “effect on P2X4 receptor-mediated currents” value [2] is reported as “not observed to produce any effects; also recorded: non-inhibitory effect” and the “effect on P2X7 receptor-mediated currents” value [3] is reported as “not observed to produce any effects; also recorded: non-inhibitory effect”.
